Where “and” joins values, the source holds several entries; their conditions need not be identical. Identical values can stand only once. Where a SMILES comes first, the peptide text is derived from it. [ ]: non-standard residue; d: D form. Hyp = O=C(O)[C@@H]1C[C@@H](O)CN1
Tested on: CCL4/MIP-1 beta
Assay: Example 9 Luminex, LPS hPBMCs: CCL4/MIP-1 beta
Format: cell-based, human
Settings: for MFI (Bead name: CCL4/MIP-1 beta): dilution 10
Experimental: Treatment Human PBMCs were pretreated with YY-101, YDE-011 and YDE-043 or reference compound; Xiidra® at various concentration (ranging from 1 nM to 100 uM) for 2 h before stimulation. An equal volume of 0.5% DMSO was used as a vehicle control. Then, the cells were treated with LPS at 5 ug/ml. The supernatants from treated cells were harvested at 24 h and placed in a 96 well for Luminex cytokine & chemokine profiling using a Luminex 200 multiplex assay (Luminex; R&D system, USA).
The main study arm with triplicate wells per group in a 24-well plate: • 1. Blank • 2. PBMC: 0.5% DMSO • 3. PBMC+LPS (5 ug/ml) • 4. PBMC+YY-101 100 uM • 5. PBMC+YY-101 10 uM • 6. PBMC+YY-101 1 uM • 7. PBMC+YY-101 0.1 uM • 8. PBMC+YY-101 0.01 uM • 9. PBMC+LPS (5 ug/ml)+Xiidra®100 uM • 10. PBMC+LPS (5 ug/ml)+Xiidra® 10 uM • 11. PBMC+LPS (5 ug/ml)+Xiidra® 1 uM • 12. PBMC+LPS (5 ug/ml)+Xiidra®0.1 uM • 13. PBMC+LPS (5 ug/ml)+Xiidra®0.01 uM • 14. PBMC+LPS (5 ug/ml)+Xiidra®0.001 uM • 15. PBMC+LPS (5 ug/ml)+YY-101 100 uM • 16. PBMC+LPS (5 ug/ml)+YY-101 10 uM • 17. PBMC+LPS (5 ug/ml)+YY-101 1 uM • 18. PBMC+LPS (5 ug/ml)+YY-101 0.1 uM • 19. PBMC+LPS (5 ug/ml)+YY-101 0.01 uM • 20. PBMC+LPS (5 ug/ml)+YY-101 0.001 uM • 21. PBMC+LPS (5 ug/ml)+YDE-011 100 uM • 22. PBMC+LPS (5 ug/ml)+YDE-011 10 uM • 23. PBMC+LPS (5 ug/ml)+YDE-011 1 uM • 24. PBMC+LPS (5 ug/ml)+YDE-011 0.1 uM • 25. PBMC+LPS (5 ug/ml)+YDE-011 0.01 uM • 26. PBMC+LPS (5 ug/ml)+YDE-011 0.001 uM • 27. PBMC+LPS (5 ug/ml)+YDE-043 100 uM • 28. PBMC+LPS (5 ug/ml)+YDE-043 10 uM • 29. PBMC+LPS (5 ug/ml)+YDE-043 1 uM • 30. PBMC+LPS (5 ug/ml)+YDE-043 0.1 uM • 31. PBMC+LPS (5 ug/ml)+YDE-043 0.01 uM • 32. PBMC+LPS (5 ug/ml)+YDE-043 0.001 uM
Multiplex assay was used to measure 30 cytokines and chemokines. The 1:2, 1:10 and 1:200 diluted cell supernatant and serial dilution of the standard were dispensed into a 96 well plate at 50 ul/well. Then, the pre-mixed cocktail of antibody-coated magnetic beads was dispensed at 50 ul/well and incubated at room temperature for 2 h in a horizontal orbital microplate shaker at 800±500 rpm. The beads were washed using a magnetic device to prevent loss. The biotin-antibody was dispensed in 50 ul of each well and incubated at room temperature for 1 h in a shaker at 800±500 rpm. After washing, streptavidin-PE was added at 50 ul/well and incubated at room temperature for 30 min in a shaker under the same conditions. Finally, after washing, wash buffer (100 ul/well) was added to the plate and incubated in a shaker for 2 min. The Luminex™ 200 setting were set according to the manufacturer's protocol. The data was calculated with a standard five-parameter logistic nonlinear regression analysis of the data (xPonent software 4.2, USA). The levels of cytokine/chemokine are normalized to the live cell counts (1×10^5 cells/mL) and presented as concentrations per mL (pg/mL or ng/mL).

[1] = PBMC + LPS(5 ug/ml), test article 0.001 uM, Mean
[2] = PBMC + LPS(5 ug/ml), test article 0.001 uM, single replicates
[3] = PBMC + LPS(5 ug/ml), test article 0.01 uM, Mean
[4] = PBMC + LPS(5 ug/ml), test article 0.01 uM, single replicates
[5] = PBMC + LPS(5 ug/ml), test article 0.1 uM, Mean
[6] = PBMC + LPS(5 ug/ml), test article 0.1 uM, single replicates
[7] = PBMC + LPS(5 ug/ml), test article 1 uM, Mean
[8] = PBMC + LPS(5 ug/ml), test article 1 uM, single replicates
[9] = PBMC + LPS(5 ug/ml), test article 10 uM, Mean
[10] = PBMC + LPS(5 ug/ml), test article 10 uM, single replicates
[11] = PBMC + LPS(5 ug/ml), test article 100 uM, Mean
[12] = PBMC + LPS(5 ug/ml), test article 100 uM, single replicates
[13] = PBMC without LPS, test article 0.01 uM, Mean
[14] = PBMC without LPS, test article 0.01 uM, single replicates
[15] = PBMC without LPS, test article 0.1 uM, Mean
[16] = PBMC without LPS, test article 0.1 uM, single replicates
[17] = PBMC without LPS, test article 1 uM, Mean
[18] = PBMC without LPS, test article 1 uM, single replicates
[19] = PBMC without LPS, test article 10 uM, Mean

## CC(C)C[C@H](NC(=O)CNC(=O)[C@H](CC(=O)O)NC(=O)[C@H](CCC(N)=O)NC(=O)CNC(=O)[C@@H]1C[C@@H](O)CN1)C(=O)N[C@@H](C)C(=O)NCC(=O)N1CCC[C@H]1C(=O)N[C@@H](CCCCN)C(=O)O [YY-101] (H-[Hyp]GQDGLAGPK-OH; N-terminus and C-terminus assumed)
LPS 5 ug/mL 24 hrs, 100 uM to 1 nM
  LPS-induced CCL4 (in words): significantly reduced
[1]
  Concentration (CCL4/MIP-1 beta): 13975.6 pg/mL
  conc/live cell (CCL4/MIP-1 beta): 2183.3 pg/10^5
  MFI (Bead name: CCL4/MIP-1 beta): 515.8
[2]
  MFI (Bead name: CCL4/MIP-1 beta): 551.5 and 527.0 and 469.0
  Concentration (CCL4/MIP-1 beta): 14562.9 pg/mL and 14163.0 pg/mL and 13200.9 pg/mL
  conc/live cell (CCL4/MIP-1 beta): 2554.9 pg/10^5 and 1994.8 pg/10^5 and 2000.1 pg/10^5
[3]
  Concentration (CCL4/MIP-1 beta): 15170.0 pg/mL
  conc/live cell (CCL4/MIP-1 beta): 2461.1 pg/10^5
  MFI (Bead name: CCL4/MIP-1 beta): 589.2
[4]
  MFI (Bead name: CCL4/MIP-1 beta): 611.0 and 596.5 and 560.0
  Concentration (CCL4/MIP-1 beta): 15520.6 pg/mL and 15288.8 pg/mL and 14700.8 pg/mL
  conc/live cell (CCL4/MIP-1 beta): 2425.1 pg/10^5 and 2548.1 pg/10^5 and 2410.0 pg/10^5
[5]
  Concentration (CCL4/MIP-1 beta): 15088.0 pg/mL
  conc/live cell (CCL4/MIP-1 beta): 2590.9 pg/10^5
  MFI (Bead name: CCL4/MIP-1 beta): 584.0
[6]
  MFI (Bead name: CCL4/MIP-1 beta): 576.0 and 592.0 and 584.0
  Concentration (CCL4/MIP-1 beta): 14959.4 pg/mL and 15216.6 pg/mL and 15088.1 pg/mL
  conc/live cell (CCL4/MIP-1 beta): 2412.8 pg/10^5 and 2926.3 pg/10^5 and 2433.6 pg/10^5
[7]
  Concentration (CCL4/MIP-1 beta): 14794.1 pg/mL
  conc/live cell (CCL4/MIP-1 beta): 2273.3 pg/10^5
  MFI (Bead name: CCL4/MIP-1 beta): 565.8
[8]
  MFI (Bead name: CCL4/MIP-1 beta): 594.0 and 556.5 and 547.0
  Concentration (CCL4/MIP-1 beta): 15248.7 pg/mL and 14644.0 pg/mL and 14489.7 pg/mL
  conc/live cell (CCL4/MIP-1 beta): 2420.4 pg/10^5 and 2062.5 pg/10^5 and 2337.0 pg/10^5
[9]
  Concentration (CCL4/MIP-1 beta): 15474.9 pg/mL
  conc/live cell (CCL4/MIP-1 beta): 2351.1 pg/10^5
  MFI (Bead name: CCL4/MIP-1 beta): 608.3
[10]
  MFI (Bead name: CCL4/MIP-1 beta): 614.0 and 651.0 and 560.0
  Concentration (CCL4/MIP-1 beta): 15568.4 pg/mL and 16155.4 pg/mL and 14700.8 pg/mL
  conc/live cell (CCL4/MIP-1 beta): 2594.7 pg/10^5 and 2524.3 pg/10^5 and 1934.3 pg/10^5
[11]
  Concentration (CCL4/MIP-1 beta): 13712.9 pg/mL
  conc/live cell (CCL4/MIP-1 beta): 2374.0 pg/10^5
  MFI (Bead name: CCL4/MIP-1 beta): 499.8
[12]
  MFI (Bead name: CCL4/MIP-1 beta): 537.0 and 474.5 and 488.0
  Concentration (CCL4/MIP-1 beta): 14326.7 pg/mL and 13293.2 pg/mL and 13518.7 pg/mL
  conc/live cell (CCL4/MIP-1 beta): 2274.1 pg/10^5 and 2144.1 pg/10^5 and 2703.7 pg/10^5
[13]
  conc/live cell (CCL4/MIP-1 beta): 0.0 pg/10^5
  MFI (Bead name: CCL4/MIP-1 beta): 0.0
[14]
  MFI (Bead name: CCL4/MIP-1 beta): 0.0
  conc/live cell (CCL4/MIP-1 beta): 0.0 pg/10^5
[15]
  conc/live cell (CCL4/MIP-1 beta): 0.0 pg/10^5
  MFI (Bead name: CCL4/MIP-1 beta): 0.0
[16]
  MFI (Bead name: CCL4/MIP-1 beta): 0.0
  conc/live cell (CCL4/MIP-1 beta): 0.0 pg/10^5
[17]
  conc/live cell (CCL4/MIP-1 beta): 0.0 pg/10^5
  MFI (Bead name: CCL4/MIP-1 beta): −0.8
[18]
  MFI (Bead name: CCL4/MIP-1 beta): −1.0 and −0.5
  conc/live cell (CCL4/MIP-1 beta): 0.0 pg/10^5
[19]
  Concentration (CCL4/MIP-1 beta): 1948.5 pg/mL
  conc/live cell (CCL4/MIP-1 beta): 152.2 pg/10^5
  MFI (Bead name: CCL4/MIP-1 beta): 5.5
PBMC without LPS, test article 10 uM, single replicates
  MFI (Bead name: CCL4/MIP-1 beta): 10.0 and 1.0
